From patent US8790898B2 (priority 2008, dated 2014)
“And” between values parts separate entries of the source, which are not always exact repeats. Equal values may be shown once. “Also recorded” adds a separate entry of the source. Read-outs that look alike come from different tables or passages of the source.

Columns and labels:
[1] = molecular target: CBD1, C13K, CBD1/A and C10M peptides and the CBD1-KLH Construct (Human immunodeficiency virus type 1 group M subtype B, UniProt P04578, E630Q/H625N/T626M); settings: guinea pig, in vivo
[2] = test system: CBD1, C13K, CBD1/A and C10M peptides and the CBD1-KLH Construct; settings: guinea pig, in vivo
[3] = molecular target: CBD1, C13K, CBD1/A and C10M peptides and the CBD1-KLH Construct (Human immunodeficiency virus type 1 group M subtype B, UniProt P04578); settings: guinea pig, in vivo
[4] = test system: CBD1 peptide and CBD1- and CBM-based peptides; design: species or system BALB/c mice; settings: mouse, in vivo
[5] = test system: CBD1 (C18K) and the Tet peptide; design: species or system cynomolgus macaques (Macaca fascicularis); settings: cynomolgus monkey, in vivo
HIV-1 BZ 167 [6] = format: cell-based; settings: listed as CBD1
[7] = test system: CBD1 peptide specific IFN-γ spot forming cells; design: species or system cynomolgus macaques (Macaca fascicularis); settings: cynomolgus monkey, in vivo
[8] = test system: IgG antibodies in human HIV-1 positive sera; format: binding
[9] = test system: primary HIV-1 BZ 167 isolate; format: cell-based; settings: rabbit immune serum; dilution resulting 50% inhibition of HIV-1 infection; listed as CBD1
HIV-1 BZ 167 [10] = format: cell-based
CBD1 peptide = CBD1 peptide (Human immunodeficiency virus type 1 group M subtype B, UniProt P04578, E630Q/H625N/T626M); settings: rabbits, 150 μg/injection, CFA, ten days after 5th immunization; against CBD1; reciprocal dilution giving OD450 = 0.1

Substance: C-S-L-E-Q-I-W-N-N-M-T-W-M-Q-W-D-K [C17K]
- ELISA CBD1 (titer) [1]: 128,000
- Titer (ELISA) [1]: 128,000 and 96,000
- ELISA C13K (titer) [2]: 128,000
- ELISA CBD1/A (titer) [2]: 12,000 and 16,000
- ELISA KLH (titer against the CBD1-KLH construct) [2]: <200
- IgG2/1gG1 ratio [2]: 4.10 and 3.75
- ELISA C10M (titer) [3]: 12,000
- IgG2/1gG1 ratio [4]: 0.96 and 1.15
- Titer (ELISA) [4]: 256,000 and 384,000
- ELISA C17K ([4]; sc): 1.94 ± 0.28
- ELISA K23M ([4]; sc): <0.20
- ELISA K24W ([4]; sc): <0.20
- ELISA K27M ([4]; sc): 2.91 ± 0.26
- ELISA K27W ([4]; sc): <0.20
- ELISA K27W(G) ([4]; sc): <0.20
- ELISA K30W(G) ([4]; sc): <0.20
- ELISA against the Immunogen (OD) ([4]; sc): 1.22 OD
- ELISA p6362 ([4]; sc): 1.78 ± 0.22
- ELISA titer against C17K ([4]; sc): 1.94 ± 0.45
- IgG2/IgG1 ratio ([4]; sc): 1.08
- macaques that developed high antibody titers [5]: two out of the three; also recorded: one out of the three
- Inhibition of HIV-infection (HIV-1 BZ 167 [6]; 50-fold dilution of guinea pig immune sera (bleeds S5), HIV-1 BZ 167, p24 at 5 days post infection): 66% and 57%
- Inhibition of HIV infection (HIV-1 BZ 167 [6]; 100 fold dilution of guinea pig immune serum (bleeds S5), HIV-1 BZ 162, human CD4+ T lymphocytes): 66% and 57%
- HIV Inhibition (ID50) (HIV-1 BZ 167 [6]; guinea pig immune serum, dilution resulting 50% inhibition of HIV-1 infection): 50 and <50
- immunized animals in each group that developed a significant level of T-cell response against the CBD1 epitope [7]: one out of the three
- sera found to be positive in ELISA ([8]; another cohort of 75 HIV-1-positive individuals): two
- titer of anti-CBD1 peptide antibodies ([8]; listed as CBD1): 6,400 and 12,800
- HIV Inhibition (ID50) [9]: 250 and 200
- % Inhibition of HIV-1 infection at 200-fold dilution (HIV-1 BZ 167 [10]): 59%
- % inhibition of HIV-1 at 200-fold dilution (HIV-1 BZ 167 [10]): 75%
- HIV Inhibition (ID50) (HIV-1 BZ 167 [10]): 250 and 300
- Neutralizing activity ID50 (HIV-1 BZ 167 [10]): 250-fold
- Neutralizing activity ID50 Fold-Dilution (HIV-1 BZ 167 [10]): 300-fold
- Titer (ELISA) (CBD1 peptide): 768,000 and 640,000
